The values below are quoted from earlier work in patent US12187997B2, “Integrated human organ-on-chip microphysiological systems” (President and Fellows of Harvard College, priority 2011, dated 2025).

The conditions of data set [1]: for Clearence Mechanism (for PK): Table 1.
For data set [2] the following is noted: for Organ Toxicity: Table 1.
For data set [3] the following is noted: relieving dyspnea in heart failure patients.

“Also recorded” adds a separate entry of the source.

Take `CCOC(=O)C1=C[C@@H](OC(CC)CC)[C@H](NC(C)=O)[C@@H](N)C1` [Tamiflu]: the “Clearence Mechanism (for PK)” value in data set [1] is reported as “Liver; Renal”. In data set [2], the “Organ Toxicity” value is “children <1 yr”.

For `Nc1ccn([C@H]2C[C@H](O)[C@@H](COP(=O)(O)OP(=O)(O)OP(=O)(O)OP(=O)(O)OC[C@H]3O[C@@H](n4ccc(=O)[nH]c4=O)[C@H](O)[C@@H]3O)O2)c(=O)n1` [Denufosol], the “Clearence Mechanism (for PK)” value in data set [1] is “Aerosol”.

As for `CC(C)NCC(O)c1ccc(O)c(O)c1` (centres unmarked) [Isoproterenol], in data set [1], the “metabolism and elimination” value was “primarily metabolized and excreted by the kidney in humans”; the “Clearence Mechanism (for PK)” value is recorded as “Renal”. Further, the “Organ Toxicity” value in data set [2] is recorded as “Heart”.

Regarding `CC(C)(C)c1ccc(C(O)CCCN2CCC(C(O)(c3ccccc3)c3ccccc3)CC2)cc1` (centres unmarked) [Terfenadine], in data set [2], the “toxicity in humans / in vivo” value is “cardiotoxic at higher doses in humans” and the “Organ Toxicity” value is “Heart; also recorded: arrhythmia”.

On to `Cc1c(C)c2c(c(C)c1O)CCC(C)(COc1ccc(CC3SC(=O)NC3=O)cc1)O2` (centres unmarked) [Troglitazone], for which the “Clearence Mechanism (for PK)” value in data set [1] is “Liver”. Further, in data set [2], the “Organ Toxicity” value is listed as “Liver”.

Take Nesiritide: in data set [1], the “metabolism and elimination” value was “primarily eliminated by the kidney”; the “Clearence Mechanism (for PK)” value is recorded as “Proteolysis,; also recorded: Renal”. Further, the clinical efficacy entry in data set [3] was “failed a large clinical trial for efficacy”.

With `Cc1nnc(SCC2=C(C(=O)O)N3C(=O)[C@@H](NC(=O)Cn4cnnn4)[C@H]3SC2)s1` [Cefazolin], in data set [2], the “toxicity in humans / in vivo” value was “produces pulmonary blood clots and nephrotoxicity”; the “Organ Toxicity” value is “Lung, Kidney”.

For `COCc1c(C(C)C)nc(C(C)C)c(/C=C/[C@@H](O)C[C@@H](O)CC(=O)O)c1-c1ccc(F)cc1` [Cerivastatin], in data set [1], the “Clearence Mechanism (for PK)” value is listed as “Liver”. Moreover, in data set [2], the “toxicity in humans / in vivo” value is “major toxicities in vivo (rhabdylomysis) and liver toxicity”; the “Organ Toxicity” value was “Skeletal; also recorded: muscle,; also recorded: Kidney, Liver”.

Turning to `CC(=O)N1CCN(c2ccc(OCC3COC(Cn4ccnc4)(c4ccc(Cl)cc4Cl)O3)cc2)CC1` (centres unmarked) [Ketoconazole], the “Clearence Mechanism (for PK)” value in data set [1] was “Liver”. The “Organ Toxicity” value in data set [2] is “Liver DDI, tests”.

In the case of `COc1ccc(C(=O)N2CCN(c3ccc4c(c3)CCC(=O)N4)CC2)cc1OC` [Vesnarinone], the “Clearence Mechanism (for PK)” value in data set [1] is “Liver”. Further, in data set [2], the “Organ Toxicity” value is listed as “Heart”.

As for `Cc1ccc2c(c1)c1c(n2CCc2ccc(C)nc2)CCN(C)C1` [Latrepirdine], in data set [1], the “Clearence Mechanism (for PK)” value was “(Crosses BBB)”.

In the case of `COc1cccc2c1C(=O)c1c(O)c3c(c(O)c1C2=O)C[C@@](O)(C(=O)CO)C[C@@H]3O[C@H]1C[C@H](N)[C@H](O)[C@H](C)O1` [Doxorubicin], the “Clearence Mechanism (for PK)” value in data set [1] is reported as “Liver, Renal”. The “Organ Toxicity” value in data set [2] was “Heart, gut, and bone marrow, and skin”.

As for `N.N.[Cl][Pt][Cl]` [Cisplatin], the “Clearence Mechanism (for PK)” value in data set [1] is “Renal”.
